US20100189701A1, “METHODS AND COMPOSITIONS TO TREAT ARRHYTHMIAS” (priority 2007, published 2010)

Columns and labels:
[1] = system: neonatal rat ventricular myocyte cultures; test: Conduction velocity in neonatal rat ventricular myocyte cultures on multi-electrode array; assay type: cell-based
HCN2 induced current = test: Autonomic agonists on HCN2 induced current in hMSCs; assay type: cell-based
[2] = system: monomorphic ventricular tachycardia; conditions: one week after gene transfer; cited from earlier work
MMP-7 = conditions: clinically relevant dosages; cited from earlier work
[3] = Sodium channel steady state inactivation (literature values); conditions: depolarization to −65 mV
From the text: Since slow conduction is an essential feature of reentrant cardiac arrhythmias, it seems worth considering other mammalian sodium channels that might have more favorable properties than the cardiac Na channel in circumstances that favor slow conduction. One such circumstance is membrane depolarization and so the voltage dependence of steady state inactivation is of interest. Cohen Table I provides a comparison of the midpoints for steady state inactivation and slope factor for the cardiac and skeletal muscle sodium channels and a specific mutant of the skeletal muscle channel (G1306E). […] Thus, if cardiac muscle is depolarized to −65 mV, virtually all cardiac sodium channels would be inactivated, while a similar depolarization would leave almost half of normal skeletal muscle sodium channels available. This observation thus relates to a method of the present invention that the use of alternative sodium channels with more favorable biophysical properties serve as a useful antiarrhythmic therapy.
Besides existing sodium channels, much has been learned from structure-function studies in which specific amino acids have been mutated. An extensive study of the S4 domain of the skeletal muscle sodium channel was conducted by Haywood et al. (1996), J. Gen. Physiol. 107, 559-576 in an attempt to understand the origins of enhanced excitability in inherited human myotonia. […]

[4] = cited from earlier work
epicardial border zone = test: Canine infarct epicardial border zone, electrograms and microelectrode study; assay type: in vivo, dog; conditions: dog, in vivo
[5] = system: neonatal and adult rat ventricular myocytes; conditions: adenoviral expression; cited from earlier work
hMSCs = test: Patch clamp of If in hMSCs transfected with mHCN2; assay type: cell-based, human
From the text: FIG. 4: Example of loading hMSC with a gene of interest, studying it biophysically and determining its effect on the heart. Panels A-C study functional expression of If in hMSCs transfected via electroporation with mHCN2 gene. If was expressed in hMSCs transfected with the mHCN2 gene (B) but not in nontransfected stem cells (A). C, Fit by the Boltzmann equation to the normalized tail currents of If gives a midpoint of −91.8+/−0.9 mV and a slope of 8.8+/−0.5 mV (n=9). If was fully activated around −140 mV with an activation threshold of −60 mV. […] Voltage protocol was to hold at −30 mV and hyperpolarize for 1.5 seconds to voltages between −40 and −160 mV in 10-mV increments followed by a 1.5-second voltage step to +20 mV to record the tail currents. Panels D-E show function of hMSCs loaded with HCN2 gene 10 days after injection into canine LV anterior wall in dog in complete heart block. Panels D, placebo experiment, dog injected with saline. […] Panels E, dog injected with approximately 1.2 million hMSCs loaded with HCN2.

p-conotoxin GIIIA [μ-CTX GIIIA]
effect on CV [1]: CV is reduced in SkM1 cultures to the level recorded in GFP cultures

CC(C)NCC(O)c1ccc(O)c(O)c1 (stereo not drawn) [isoproterenol]
effect on expressed HCN2 current (HCN2 induced current): has a direct effect on the expressed current

Cx43: connexin
animals showing no inducible monomorphic VT [2]: 4 of 5

COc1cc2ncnc(Nc3ccc(F)c(Cl)c3)c2cc1OCCCN1CCOCC1 [Gefitinib]
MMP-7 activity (MMP-7): inhibits MMP-7 activity

skM1(G1306E): specific mutant of the skeletal muscle sodium channel
sodium channels available [3]: more than 70%
inactivation midpoint ([4]; as stated in Example 16 group description): −55 mV
activation midpoint ([4]; as worded): −57 mV
Slope factor ([4]; steady state inactivation): −5.2 mV

NC1=N[C@H](O)[C@H]2[C@H]3O[C@]4(O)O[C@@H]([C@@H](O)[C@@]2(N1)[C@@H]4O)[C@]3(O)CO [TTX, tetrodotoxin]
conduction velocity decrease [1]: 20%
Vmax and membrane responsiveness response (epicardial border zone): significant response to TTX

B1: mHCN2: pacemaker channel gene (protein, UniProt O88703 1-863, looked up)
Potassium/sodium …: MDARGGGGRPGDSPGTTPAPGPPPPPPPPAPPQPQPPPAPPPNPTTPSHPESADEPGPRARLCSRDSACTPGAAKGGANGECGRGEPQCSPEGPARGPKVSFSCRGAASGPSAAEEAGSEEAGPAGEPRGSQASFLQRQFGALLQPGVNKFSLRMFGSQKAVEREQERVKSAGAWIIHPYSDFRFYWDFTMLLFMVGNLIIIPVGITFFKDETTAPWIVFNVVSDTFFLMDLVLNFRTGIVIEDNTEIILDPEKIKKKYLRTWFVVDFVSSIPVDYIFLIVEKGIDSEVYKTARALRIVRFTKILSLLRLLRLSRLIRYIHQWEEIFHMTYDLASAVMRICNLISMMLLLCHWDGCLQFLVPMLQDFPSDCWVSINNMVNHSWSELYSFALFKAMSHMLCIGYGRQAPESMTDIWLTMLSMIVGATCYAMFIGHATALIQSLDSSRRQYQEKYKQVEQYMSFHKLPADFRQKIHDYYEHRYQGKMFDEDSILGELNGPLREEIVNFNCRKLVASMPLFANADPNFVTAMLTKLKFEVFQPGDYIIREGTIGKKMYFIQHGVVSVLTKGNKEMKLSDGSYFGEICLLTRGRRTASVRADTYCRLYSLSVDNFNEVLEEYPMMRRAFETVAIDRLDRIGKKNSILLHKVQHDLSSGVFNNQENAIIQEIVKYDREMVQQAELGQRVGLFPPPPPPQVTSAIATLQQAVAMSFCPQVARPLVGPLALGSPRLVRRAPPGPLPPAASPGPPAASPPAAPSSPRAPRTSPYGVPGSPATRVGPALPARRLSRASRPLSASQPSLPHGVPAPSPAASARPASSSTPRLGPAPTARTAAPSPDRRDSASPGAASGLDPLDSARSRLSSNL
voltage dependence of activation, neonatal vs adult myocytes [5]: about 20 mV
activation threshold (hMSCs): −60 mV
voltage of full activation (hMSCs): around −140 mV
midpoint of If activation (Boltzmann fit to tail currents) (hMSCs; hMSCs transfected via electroporation, n=9): −91.8+/−0.9 mV
slope of If activation (hMSCs; n=9): 8.8+/−0.5 mV

B2: ERG3: delayed rectifier with steady state window current (protein, UniProt Q9NS40 1-1196, looked up)
Voltage-gated inwardly …: MPVRRGHVAPQNTFLGTIIRKFEGQNKKFIIANARVQNCAIIYCNDGFCEMTGFSRPDVMQKPCTCDFLHGPETKRHDIAQIAQALLGSEERKVEVTYYHKNGSTFICNTHIIPVKNQEGVAMMFIINFEYVTDNENAATPERVNPILPIKTVNRKFFGFKFPGLRVLTYRKQSLPQEDPDVVVIDSSKHSDDSVAMKHFKSPTKESCSPSEADDTKALIQPSKCSPLVNISGPLDHSSPKRQWDRLYPDMLQSSSQLSHSRSRESLCSIRRASSVHDIEGFGVHPKNIFRDRHASEDNGRNVKGPFNHIKSSLLGSTSDSNLNKYSTINKIPQLTLNFSEVKTEKKNSSPPSSDKTIIAPKVKDRTHNVTEKVTQVLSLGADVLPEYKLQTPRINKFTILHYSPFKAVWDWLILLLVIYTAIFTPYSAAFLLNDREEQKRRECGYSCSPLNVVDLIVDIMFIIDILINFRTTYVNQNEEVVSDPAKIAIHYFKGWFLIDMVAAIPFDLLIFGSGSDETTTLIGLLKTARLLRLVRVARKLDRYSEYGAAVLMLLMCIFALIAHWLACIWYAIGNVERPYLTDKIGWLDSLGQQIGKRYNDSDSSSGPSIKDKYVTALYFTFSSLTSVGFGNVSPNTNSEKIFSICVMLIGSLMYASIFGNVSAIIQRLYSGTARYHMQMLRVKEFIRFHQIPNPLRQRLEEYFQHAWTYTNGIDMNMVLKGFPECLQADICLHLNQTLLQNCKAFRGASKGCLRALAMKFKTTHAPPGDTLVHCGDVLTALYFLSRGSIEILKDDIVVAILGKNDIFGEMVHLYAKPGKSNADVRALTYCDLHKIQREDLLEVLDMYPEFSDHFLTNLELTFNLRHESAKADLLRSQSMNDSEGDNCKLRRRKLSFESEGEKENSTNDPEDSADTIRHYQSSKRHFEEKKSRSSSFISSIDDEQKPLFSGIVDSSPGIGKASGLDFEETVPTSGRMHIDKRSHSCKDITDMRSWERENAHPQPEDSSPSALQRAAWGISETESDLTYGEVEQRLDLLQEQLNRLESQMTTDIQTILQLLQKQTTVVPPAYSMVTAGSEYQRPIIQLMRTSQPEASIKTDRSFSPSSQCPEFLDLEKSKLKSKESLSSGVHLNTASEDNLTSLLKQDSDLSLELHLRQRKTYVHPIRHPSLPDSSLSTVGIVGLHRHVSDPGLPGK
potential of maximal steady state conductance (Xenopus oocytes): −50 mV
steady state window conductance vs other ERG family members (Xenopus oocytes): largest steady state conductance

B3: HERG-G628S: dominant negative HERG mutant (protein, UniProt Q12809 1-1159, looked up, variant G628S)
Voltage-gated inwardly …: MPVRRGHVAPQNTFLDTIIRKFEGQSRKFIIANARVENCAVIYCNDGFCELCGYSRAEVMQRPCTCDFLHGPRTQRRAAAQIAQALLGAEERKVEIAFYRKDGSCFLCLVDVVPVKNEDGAVIMFILNFEVVMEKDMVGSPAHDTNHRGPPTSWLAPGRAKTFRLKLPALLALTARESSVRSGGAGGAGAPGAVVVDVDLTPAAPSSESLALDEVTAMDNHVAGLGPAEERRALVGPGSPPRSAPGQLPSPRAHSLNPDASGSSCSLARTRSRESCASVRRASSADDIEAMRAGVLPPPPRHASTGAMHPLRSGLLNSTSDSDLVRYRTISKIPQITLNFVDLKGDPFLASPTSDREIIAPKIKERTHNVTEKVTQVLSLGADVLPEYKLQAPRIHRWTILHYSPFKAVWDWLILLLVIYTAVFTPYSAAFLLKETEEGPPATECGYACQPLAVVDLIVDIMFIVDILINFRTTYVNANEEVVSHPGRIAVHYFKGWFLIDMVAAIPFDLLIFGSGSEELIGLLKTARLLRLVRVARKLDRYSEYGAAVLFLLMCTFALIAHWLACIWYAIGNMEQPHMDSRIGWLHNLGDQIGKPYNSSGLGGPSIKDKYVTALYFTFSSLTSVGFSNVSPNTNSEKIFSICVMLIGSLMYASIFGNVSAIIQRLYSGTARYHTQMLRVREFIRFHQIPNPLRQRLEEYFQHAWSYTNGIDMNAVLKGFPECLQADICLHLNRSLLQHCKPFRGATKGCLRALAMKFKTTHAPPGDTLVHAGDLLTALYFISRGSIEILRGDVVVAILGKNDIFGEPLNLYARPGKSNGDVRALTYCDLHKIHRDDLLEVLDMYPEFSDHFWSSLEITFNLRDTNMIPGSPGSTELEGGFSRQRKRKLSFRRRTDKDTEQPGEVSALGPGRAGAGPSSRGRPGGPWGESPSSGPSSPESSEDEGPGRSSSPLRLVPFSSPRPPGEPPGGEPLMEDCEKSSDTCNPLSGAFSGVSNIFSFWGDSRGRQYQELPRCPAPTPSLLNIPLSSPGRRPRGDVESRLDALQRQLNRLETRLSADMATVLQLLQRQMTLVPPAYSAVTTPGPGPTSTSPLLPVSPLPTLTLDSLSQVSQFMACEELPPGAPELPQEGPTRRLSLPGQLGALTSQPLHRHGSDPGS
animals showing no inducible monomorphic VT [2]: 5 of 5
